Results: ChEMBL document CHEMBL4330132, “5-Keto-3-cyano-2,4-diaminothiophenes as selective maternal embryonic leucine zipper kinase inhibitors” (Bioorg Med Chem Lett, 2019)

Legend:
[1] = target: Cyclin-dependent kinase 18 (Homo sapiens) (UniProt Q07002); test: Binding affinity to wild-type human full length PCTK3 (M3 to F474 residues) expressed in bacterial expression system assessed as residual binding level at 1 uM by Kinomescan method relative to control
[2] = target: Macrophage colony-stimulating factor 1 receptor (Homo sapiens) (UniProt P07333); test: Binding affinity to wild-type human partial length CSF1R (I564 to S939 residues) expressed in bacterial expression system assessed as residual binding level at 1 uM by Kinomescan method relative to control
[3] = target: LIM domain kinase 1 (Homo sapiens) (UniProt P53667); test: Binding affinity to wild-type human full length LIMK1 (M1 to D647 residues) expressed in bacterial expression system assessed as residual binding level at 1 uM by Kinomescan method relative to control
[4] = target: Dual specificity mitogen-activated protein kinase kinase 6 (Homo sapiens) (UniProt P52564); test: Binding affinity to wild-type human partial length MEK6 (K36 to D334 residues) expressed in bacterial expression system assessed as residual binding level at 1 uM by Kinomescan method relative to control
[5] = target: Serine/threonine-protein kinase SBK1 (Homo sapiens) (UniProt Q52WX2); test: Binding affinity to wild-type human partial length SBK1 (P23 to P348 residues) expressed in mammalian expression system assessed as residual binding level at 1 uM by Kinomescan method relative to control
[6] = tested on: Tyrosine-protein kinase ABL1 (Homo sapiens), P00519 [F317I]; test: Binding affinity to human non-phosphorylated ABL1 F317I mutant (S229 to K512 residues) expressed in mammalian expression system assessed as residual binding level at 1 uM by Kinomescan method relative to control
[7] = target: Serine/threonine-protein kinase OSR1 (Homo sapiens) (UniProt O95747); test: Binding affinity to wild-type human full length OSR1 (M1 to S527 residues) expressed in mammalian expression system assessed as residual binding level at 1 uM by Kinomescan method relative to control
[8] = target: RAC-gamma serine/threonine-protein kinase (Homo sapiens) (UniProt Q9Y243); test: Binding affinity to wild-type human partial length AKT3 expressed in bacterial expression system assessed as residual binding level at 1 uM by Kinomescan method relative to control
[9] = tested on: Phosphatidylinositol 4,5-bisphosphate 3-kinase catalytic subunit alpha isoform (Homo sapiens), P42336 [I800L]; test: Binding affinity to human partial length PIK3CA I800L mutant (R108 to N1068 residues) expressed in mammalian expression system assessed as residual binding level at 1 uM by Kinomescan method relative to control
[10] = target: STE20-like serine/threonine-protein kinase (Homo sapiens) (UniProt Q9H2G2); test: Binding affinity to wild-type human partial length SLK (S14 to A307 residues) expressed in bacterial expression system assessed as residual binding level at 1 uM by Kinomescan method relative to control
[11] = target: Mitogen-activated protein kinase 7 (Homo sapiens) (UniProt Q13164); test: Binding affinity to wild-type human partial length ERK5 (M1 to A409 residues) expressed in bacterial expression system assessed as residual binding level at 1 uM by Kinomescan method relative to control
[12] = target: Serine/threonine-protein kinase PAK 6 (Homo sapiens) (UniProt Q9NQU5); test: Binding affinity to wild-type human partial length PAK6 (N298 to C681 residues) expressed in bacterial expression system assessed as residual binding level at 1 uM by Kinomescan method relative to control
[13] = target: Mitogen-activated protein kinase 12 (Homo sapiens) (UniProt P53778); test: Binding affinity to wild-type human full length p38-gamma (M1 to L367 residues) expressed in mammalian expression system assessed as residual binding level at 1 uM by Kinomescan method relative to control
[14] = target: Testis-specific serine/threonine-protein kinase 1 (Homo sapiens) (UniProt Q9BXA7); test: Binding affinity to wild-type human full length TSSK1B (M1 to Q367 residues) expressed in bacterial expression system assessed as residual binding level at 1 uM by Kinomescan method relative to control
[15] = target: Rho-associated protein kinase 2 (Homo sapiens) (UniProt O75116); test: Binding affinity to wild-type human partial length ROCK2 (M1 to T431 residues) expressed in mammalian expression system assessed as residual binding level at 1 uM by Kinomescan method relative to control
[16] = target: Serine/threonine-protein kinase ULK2 (Homo sapiens) (UniProt Q8IYT8); test: Binding affinity to wild-type human partial length ULK2 (M1 to S301 residues) expressed in mammalian expression system assessed as residual binding level at 1 uM by Kinomescan method relative to control
[17] = target: Serine/threonine-protein kinase Chk2 (Homo sapiens) (UniProt O96017); test: Binding affinity to wild-type human partial length CHEK2 (S253 to E574 residues) expressed in bacterial expression system assessed as residual binding level at 1 uM by Kinomescan method relative to control
[18] = target: Bone morphogenetic protein receptor type-1B (Homo sapiens) (UniProt O00238); test: Binding affinity to wild-type human partial length BMPR1B (D178 to L502 residues) expressed in mammalian expression system assessed as residual binding level at 1 uM by Kinomescan method relative to control
[19] = tested on: Tyrosine-protein kinase ABL1 (Homo sapiens), P00519 [Q252H]; test: Binding affinity to human phosphorylated ABL1 Q252H mutant expressed in mammalian expression system assessed as residual binding level at 1 uM by Kinomescan method relative to control
[20] = target: Phosphatidylinositol 5-phosphate 4-kinase type-2 gamma (Homo sapiens) (UniProt Q8TBX8); test: Binding affinity to wild-type human partial length PIP5K2C (M1 to A421 residues) expressed in mammalian expression system assessed as residual binding level at 1 uM by Kinomescan method relative to control
[21] = target: Ephrin type-B receptor 3 (Homo sapiens) (UniProt P54753); test: Binding affinity to wild-type human partial length EPHB3 (Q599 to T928 residues) expressed in bacterial expression system assessed as residual binding level at 1 uM by Kinomescan method relative to control
[22] = target: Leukocyte tyrosine kinase receptor (Homo sapiens) (UniProt P29376); test: Binding affinity to wild-type human partial length LTK (P422 to S744 residues) expressed in bacterial expression system assessed as residual binding level at 1 uM by Kinomescan method relative to control
[23] = target: MAP kinase-activated protein kinase 5 (Homo sapiens) (UniProt Q8IW41); test: Binding affinity to wild-type human partial length MAPKAPK5 (M1 to D322 residues) expressed in mammalian expression system assessed as residual binding level at 1 uM by Kinomescan method relative to control
[24] = target: RAC-alpha serine/threonine-protein kinase (Homo sapiens) (UniProt P31749); test: Binding affinity to wild-type human partial length AKT1 expressed in bacterial expression system assessed as residual binding level at 1 uM by Kinomescan method relative to control
[25] = target: Cyclin-dependent kinase-like 5 (Homo sapiens) (UniProt O76039); test: Binding affinity to wild-type human partial length CDKL5 (M1 to S337 residues) expressed in mammalian expression system assessed as residual binding level at 1 uM by Kinomescan method relative to control

Chain of Serine/threonine-protein kinase PAK 6 (Homo sapiens) (Q9NQU5 whole entry, looked up, the tested form may be a part): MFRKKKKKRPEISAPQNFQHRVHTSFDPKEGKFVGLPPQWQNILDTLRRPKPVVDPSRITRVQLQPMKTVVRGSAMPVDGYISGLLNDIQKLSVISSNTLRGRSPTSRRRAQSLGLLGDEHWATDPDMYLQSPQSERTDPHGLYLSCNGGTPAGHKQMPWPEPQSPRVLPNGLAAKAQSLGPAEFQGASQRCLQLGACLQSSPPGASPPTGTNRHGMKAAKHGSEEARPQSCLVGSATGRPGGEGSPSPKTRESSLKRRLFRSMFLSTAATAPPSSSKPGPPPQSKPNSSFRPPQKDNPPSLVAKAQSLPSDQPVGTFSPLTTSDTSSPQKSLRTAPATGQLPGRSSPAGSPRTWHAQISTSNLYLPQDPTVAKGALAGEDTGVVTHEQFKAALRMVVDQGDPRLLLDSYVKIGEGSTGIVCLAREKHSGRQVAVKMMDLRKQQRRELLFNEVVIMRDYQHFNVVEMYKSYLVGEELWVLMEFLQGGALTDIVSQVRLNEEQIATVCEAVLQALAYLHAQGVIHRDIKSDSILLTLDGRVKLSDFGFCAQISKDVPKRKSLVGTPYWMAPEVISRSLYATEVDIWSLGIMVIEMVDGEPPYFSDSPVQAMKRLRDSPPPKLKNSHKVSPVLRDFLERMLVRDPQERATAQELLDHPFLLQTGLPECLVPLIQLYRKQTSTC
Chain of Macrophage colony-stimulating factor 1 receptor (Homo sapiens) (P07333 whole entry, the tested form may be a part): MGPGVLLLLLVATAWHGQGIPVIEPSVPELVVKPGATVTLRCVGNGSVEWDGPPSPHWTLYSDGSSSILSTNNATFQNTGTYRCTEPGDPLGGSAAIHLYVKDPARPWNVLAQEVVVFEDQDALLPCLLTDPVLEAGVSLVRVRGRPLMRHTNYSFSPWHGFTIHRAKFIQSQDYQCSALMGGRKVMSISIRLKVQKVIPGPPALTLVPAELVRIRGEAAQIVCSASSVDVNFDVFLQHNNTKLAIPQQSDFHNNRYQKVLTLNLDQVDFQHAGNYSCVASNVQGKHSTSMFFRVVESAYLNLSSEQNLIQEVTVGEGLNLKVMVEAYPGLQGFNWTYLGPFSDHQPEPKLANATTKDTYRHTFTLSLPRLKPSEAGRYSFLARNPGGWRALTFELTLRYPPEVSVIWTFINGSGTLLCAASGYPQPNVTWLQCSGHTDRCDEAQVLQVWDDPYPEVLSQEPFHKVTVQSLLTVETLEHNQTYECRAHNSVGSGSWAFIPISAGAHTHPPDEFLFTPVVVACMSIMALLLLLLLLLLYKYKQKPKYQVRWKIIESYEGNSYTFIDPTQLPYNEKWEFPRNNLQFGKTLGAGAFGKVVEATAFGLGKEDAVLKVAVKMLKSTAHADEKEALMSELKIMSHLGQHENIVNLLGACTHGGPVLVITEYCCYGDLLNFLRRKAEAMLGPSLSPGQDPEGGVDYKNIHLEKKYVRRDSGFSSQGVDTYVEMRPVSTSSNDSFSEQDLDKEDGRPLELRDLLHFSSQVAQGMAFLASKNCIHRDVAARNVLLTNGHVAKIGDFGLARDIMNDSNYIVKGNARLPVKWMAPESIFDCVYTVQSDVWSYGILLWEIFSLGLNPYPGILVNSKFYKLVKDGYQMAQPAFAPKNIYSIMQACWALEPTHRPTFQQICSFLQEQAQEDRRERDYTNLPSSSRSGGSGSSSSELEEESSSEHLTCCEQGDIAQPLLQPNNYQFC
Chain of Leukocyte tyrosine kinase receptor (Homo sapiens) (P29376 whole entry, the tested form may be a part): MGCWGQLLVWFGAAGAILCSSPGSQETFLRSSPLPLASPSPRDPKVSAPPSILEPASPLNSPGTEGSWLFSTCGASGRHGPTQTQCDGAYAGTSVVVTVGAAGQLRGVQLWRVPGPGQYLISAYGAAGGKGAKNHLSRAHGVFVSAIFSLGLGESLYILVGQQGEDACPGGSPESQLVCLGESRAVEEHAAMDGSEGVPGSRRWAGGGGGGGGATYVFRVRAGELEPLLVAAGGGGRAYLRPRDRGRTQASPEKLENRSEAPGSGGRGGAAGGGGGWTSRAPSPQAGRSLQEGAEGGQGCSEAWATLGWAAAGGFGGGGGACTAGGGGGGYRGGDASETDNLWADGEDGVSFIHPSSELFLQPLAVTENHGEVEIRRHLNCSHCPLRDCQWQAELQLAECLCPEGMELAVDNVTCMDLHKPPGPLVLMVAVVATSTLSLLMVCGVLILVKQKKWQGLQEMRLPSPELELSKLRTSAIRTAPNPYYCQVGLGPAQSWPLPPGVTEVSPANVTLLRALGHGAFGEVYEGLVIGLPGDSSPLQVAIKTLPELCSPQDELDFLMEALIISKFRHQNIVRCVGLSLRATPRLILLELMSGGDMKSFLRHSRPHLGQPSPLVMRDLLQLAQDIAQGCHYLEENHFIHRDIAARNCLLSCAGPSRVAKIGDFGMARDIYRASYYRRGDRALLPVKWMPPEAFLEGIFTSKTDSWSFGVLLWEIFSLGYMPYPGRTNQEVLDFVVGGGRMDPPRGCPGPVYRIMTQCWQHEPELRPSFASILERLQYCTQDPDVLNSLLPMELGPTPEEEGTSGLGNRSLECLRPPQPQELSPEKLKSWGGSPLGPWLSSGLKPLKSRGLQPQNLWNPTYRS
Chain of STE20-like serine/threonine-protein kinase (Homo sapiens) (Q9H2G2 whole entry, looked up, the tested form may be a part): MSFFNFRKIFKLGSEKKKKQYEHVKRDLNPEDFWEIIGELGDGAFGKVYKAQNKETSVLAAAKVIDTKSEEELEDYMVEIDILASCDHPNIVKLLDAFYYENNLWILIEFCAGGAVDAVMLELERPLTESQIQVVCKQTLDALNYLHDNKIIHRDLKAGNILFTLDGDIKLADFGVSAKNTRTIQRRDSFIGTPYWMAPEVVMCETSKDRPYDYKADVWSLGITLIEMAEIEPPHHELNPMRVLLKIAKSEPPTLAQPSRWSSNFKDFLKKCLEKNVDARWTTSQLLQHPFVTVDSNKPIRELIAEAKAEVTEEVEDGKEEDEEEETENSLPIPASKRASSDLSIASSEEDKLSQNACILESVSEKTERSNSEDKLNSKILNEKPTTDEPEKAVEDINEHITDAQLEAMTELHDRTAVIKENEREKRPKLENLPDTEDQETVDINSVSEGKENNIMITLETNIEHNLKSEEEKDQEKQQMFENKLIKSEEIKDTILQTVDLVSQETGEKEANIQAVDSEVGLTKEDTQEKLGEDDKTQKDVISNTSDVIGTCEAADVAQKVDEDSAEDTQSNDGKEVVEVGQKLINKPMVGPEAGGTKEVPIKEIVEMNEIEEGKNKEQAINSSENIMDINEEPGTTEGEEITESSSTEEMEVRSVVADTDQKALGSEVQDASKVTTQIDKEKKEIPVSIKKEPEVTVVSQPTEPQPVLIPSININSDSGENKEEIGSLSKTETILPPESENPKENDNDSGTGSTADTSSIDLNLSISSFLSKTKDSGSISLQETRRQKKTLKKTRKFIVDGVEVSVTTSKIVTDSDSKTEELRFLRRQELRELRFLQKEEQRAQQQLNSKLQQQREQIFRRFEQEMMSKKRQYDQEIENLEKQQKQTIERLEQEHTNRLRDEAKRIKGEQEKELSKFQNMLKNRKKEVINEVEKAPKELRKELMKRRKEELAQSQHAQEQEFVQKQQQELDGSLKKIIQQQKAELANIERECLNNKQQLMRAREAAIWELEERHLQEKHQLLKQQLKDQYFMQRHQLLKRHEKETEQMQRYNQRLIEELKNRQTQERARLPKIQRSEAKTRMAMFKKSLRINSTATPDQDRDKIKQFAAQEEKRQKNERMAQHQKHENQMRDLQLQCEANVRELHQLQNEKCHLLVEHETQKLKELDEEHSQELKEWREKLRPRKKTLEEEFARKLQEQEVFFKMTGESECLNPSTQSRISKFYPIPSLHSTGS
Chain of Testis-specific serine/threonine-protein kinase 1 (Homo sapiens) (Q9BXA7 whole entry, the tested form may be a part): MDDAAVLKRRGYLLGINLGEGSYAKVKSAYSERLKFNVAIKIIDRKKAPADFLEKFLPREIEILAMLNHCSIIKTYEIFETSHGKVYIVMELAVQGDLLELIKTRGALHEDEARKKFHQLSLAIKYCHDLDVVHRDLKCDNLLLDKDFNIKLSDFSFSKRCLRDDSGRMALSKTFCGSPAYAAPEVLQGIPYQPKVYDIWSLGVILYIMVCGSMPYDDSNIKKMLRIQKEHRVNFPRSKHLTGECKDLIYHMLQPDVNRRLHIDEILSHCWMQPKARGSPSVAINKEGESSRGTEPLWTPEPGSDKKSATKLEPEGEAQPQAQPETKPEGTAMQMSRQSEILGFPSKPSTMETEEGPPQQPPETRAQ
Chain of RAC-alpha serine/threonine-protein kinase (Homo sapiens) (P31749 whole entry, the tested form may be a part): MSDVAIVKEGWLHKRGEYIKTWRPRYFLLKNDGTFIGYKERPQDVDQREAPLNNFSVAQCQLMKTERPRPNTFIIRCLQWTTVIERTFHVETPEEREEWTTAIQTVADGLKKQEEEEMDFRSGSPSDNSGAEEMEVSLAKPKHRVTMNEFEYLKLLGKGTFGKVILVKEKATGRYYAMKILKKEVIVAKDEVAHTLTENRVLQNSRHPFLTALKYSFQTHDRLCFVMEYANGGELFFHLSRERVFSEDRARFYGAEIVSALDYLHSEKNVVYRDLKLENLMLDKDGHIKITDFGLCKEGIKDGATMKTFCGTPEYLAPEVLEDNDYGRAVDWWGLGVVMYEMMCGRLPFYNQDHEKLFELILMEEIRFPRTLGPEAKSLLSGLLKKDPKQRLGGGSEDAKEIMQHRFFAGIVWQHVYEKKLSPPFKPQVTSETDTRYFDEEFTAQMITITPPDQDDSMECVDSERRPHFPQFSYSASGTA
Chain of Dual specificity mitogen-activated protein kinase kinase 6 (Homo sapiens) (P52564 whole entry, the tested form may be a part): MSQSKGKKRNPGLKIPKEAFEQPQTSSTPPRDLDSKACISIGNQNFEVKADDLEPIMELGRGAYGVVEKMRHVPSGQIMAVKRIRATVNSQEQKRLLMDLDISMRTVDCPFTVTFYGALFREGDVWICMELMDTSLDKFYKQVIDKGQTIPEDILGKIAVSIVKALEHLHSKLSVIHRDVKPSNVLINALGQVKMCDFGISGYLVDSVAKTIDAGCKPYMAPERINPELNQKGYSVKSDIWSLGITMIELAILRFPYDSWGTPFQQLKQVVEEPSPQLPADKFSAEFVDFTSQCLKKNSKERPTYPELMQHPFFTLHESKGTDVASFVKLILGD

CC(C)Nc1sc(C(=O)c2ccc(Cl)s2)c(N)c1C#N
Activity [1]: 100%
Activity [2]: 97%
Activity [3]: 55%
Activity [4]: 100%
Activity [5]: 100%
Activity [6]: 100%
Activity [7]: 83%
Activity [8]: 100%
Activity [9]: 73%
Activity [10]: 96%
Activity [11]: 100%
Activity [12]: 79%
Activity [13]: 100%
Activity [14]: 100%
Activity [15]: 100%
Activity [16]: 100%
Activity [17]: 84%
Activity [18]: 94%
Activity [19]: 100%
Activity [20]: 100%
Activity [21]: 94%
Activity [22]: 100%
Activity [23]: 91%
Activity [24]: 84%
Activity [25]: 100%
